Earlier results on three compounds are cited in patent publication US12349704B2, “High quality cultured meat, compositions and methods for producing same” (ALEPH FARMS LTD., priority 2018, dated 2025).

For data set [1] the following is noted: dietary or formulated lycopene.
Experiment in data set [2]: not given
The source holds these as a separate data set.

A value given as a limit tells only on which side of the number the result lay.

Turning to `NCC(=O)[O-].NCC(=O)[O-].[Fe+2]` [Ferrous bisglycinate], for the setting “approximately 15 to 120 mg iron/day, iron-deficient young children, adult males, pregnant and non-pregnant females”, the “tolerability of dietary iron supplementation” value was “well tolerated”. Also, under “between 2 and 23 mg/day of supplemental dietary iron”, the “adverse effects in field trials of iron fortification of foods” value is given as “without any reports of adverse effects”.

For the compound `CC(C)=CCC/C(C)=C/C=C/C(C)=C/C=C/C(C)=C/C=C/C=C(C)/C=C/C=C(C)/C=C/C=C(\C)CCC=C(C)C` [lycopene], in data set [1], the “intake levels at which no adverse effects were observed” value is on record as “up to 3 g/(kg*d)”.

For the compound `CC1=C(/C=C/C(C)=C/C=C/C(C)=C/C=C/C=C(C)/C=C/C=C(C)/C=C/C2=C(C)CCCC2(C)C)C(C)(C)CCC1` [beta-carotene], the “daily intake that may lead to hypercarotenemia (yellowish coloration of the skin, harmless and reversible)” value in data set [2] is greater than 30 mg.
